Holding throughout (test): In vitro susceptibility testing, MIC by NCCLS broth microdilution
Background: Broth dilution looks for growth in wells or tubes with falling amounts of substance.

In experiment [1] the test system is E. coli OC2605. It counts as cell-based. To be noted: CAMHB, 35° C., 16-20 h. The procedure: (§1) Minimum inhibitory concentrations (“MICs”) were determined by the NCCLS broth microdilution procedure for susceptibility testing for bacteria that grow aerobically (National Committee for Clinical Laboratory Standards, 1997. Methods for dilution antimicrobial Susceptibility tests for bacteria that grow aerobically, 4th ed. Approved standard. NCCLS Document M7-A4. National Committee for Clinical Laboratory Standards, Villanova, Pa.). stock solutions were prepared on the day of the test and appropriate aliquots were added to cation adjusted Mueller-Hinton broth (CAMHB) or Haemophilus test media. Two-fold serial dilutions were prepared and added to wells in microtiter plates. Final test concentrations ranged from 16 to 0.015 μg/ml. Broth cultures of bacteria inoculated from growth on overnight plates for all test bacteria except Streptococcus pneumoniae and Haemophilus influenzae were incubated at 35° C. and then adjusted to the Kirby Bauer standard and diluted in CAMHB to achieve a final inoculum concentration of approximately 5×10^5 CFU/ml. Inocula for S. pneumoniae and H. influenzae were prepared by directly suspending colonies from an overnight plate, adjusting the turbidity and diluting as above. S. pneumoniae media was supplemented with 2.5% lysed horse blood. All plates were incubated in ambient air at 35° C. for […] for S. peteumoniae and Haemophilus influenzae and 16-20 h for all other bacteria.

For experiment [2], the system named is E. faecalis ATCC29212. It is filed as cell-based. To be noted: CAMHB, 35° C., 16-20 h. The procedure:
as §1

Experiment [3] deals with S. aureus ATCC29213. It counts as cell-based. The conditions noted are these: CAMHB, 35° C., 16-20 h. The method, then:
as §1

Experiment [4] concerns S. pneumoniae ATCC49619. It counts as cell-based, Streptococcus pneumoniae. The conditions noted are these: media with 2.5% lysed horse blood, 35° C. The procedure: (§2) Minimum inhibitory concentrations (“MICs”) were determined by the NCCLS broth microdilution procedure for susceptibility testing for bacteria that grow aerobically (National Committee for Clinical Laboratory Standards, 1997. Methods for dilution antimicrobial Susceptibility tests for bacteria that grow aerobically, 4th ed. Approved standard. NCCLS Document M7-A4. National Committee for Clinical Laboratory Standards, Villanova, Pa.). stock solutions were prepared on the day of the test and appropriate aliquots were added to cation adjusted Mueller-Hinton broth (CAMHB) or Haemophilus test media. Two-fold serial dilutions were prepared and added to wells in microtiter plates. Final test concentrations ranged from 16 to 0.015 μg/ml. Broth cultures of bacteria inoculated from growth on overnight plates for all test bacteria except Streptococcus pneumoniae and Haemophilus influenzae were incubated at 35° C. and then adjusted to the Kirby Bauer standard and diluted in CAMHB to achieve a final inoculum concentration of approximately 5×10^5 CFU/ml. Inocula for S. pneumoniae and H. influenzae were prepared by directly suspending colonies from an overnight plate, adjusting the turbidity and diluting as above. S. pneumoniae media was supplemented with 2.5% lysed horse blood. […]

The subject of experiment [5] is H. influenzae OC4883. It is filed as cell-based, Haemophilus influenzae. To be noted: Haemophilus test media, 35° C. The method, then:
as §2

Each structure is given as a SMILES string. Converted amounts (≈) assume the structure as drawn.

For the molecule `CC[C@H]1OC(=O)[C@H](C)[C@@H](O[C@H]2C[C@@](C)(OC)[C@@H](O)[C@H](C)O2)[C@H](C)[C@@H](O[C@@H]2O[C@H](C)C[C@H](N(C)C)[C@H]2O)[C@](C)(O)C[C@@H](C)C(=O)[C@H](C)[C@@H](O)[C@]1(C)O` [Erythromycin], the MIC in experiment [1] (Escherichia coli, OC2605, Table 3, Table 2 compounds) was more than 16 mg/L; in experiment [2] (Enterococcus faecalis, ATCC29212, Table 3, Table 2 compounds) it was 1 mg/L (≈ 1.36 µM); in experiment [3] (Staphylococcus aureus, ATCC29213, Table 3, Table 2 compounds), 0.5 mg/L (≈ 0.681 µM); in experiment [4] (Streptococcus pneumoniae, ATCC49619, Table 3, Table 2 compounds), 0.06 mg/L (≈ 0.0818 µM); in experiment [5] (Haemophilus influenzae, OC4883, Table 3, Table 2 compounds) it was 1 mg/L (≈ 1.36 µM). For the same molecule, the “In Vitro Susceptibility (MIC) E. coli OC2605” value in experiment [1] (Table 4, Formula III compounds) was more than 16 mg/L. Further, the “In Vitro Susceptibility (MIC) E. faecalis ATCC29212” value in experiment [2] (Table 4, Formula III compounds) was determined as 1 mg/L. For the same molecule, the “In Vitro Susceptibility (MIC) S. aureus ATCC29213” value in experiment [3] (Table 4, Formula III compounds) amounted to 0.5 mg/L. Also, the “In Vitro Susceptibility (MIC) S. pneumoniae ATCC49619” value in experiment [4] (Table 4, Formula III compounds) came to 0.06 mg/L. Further, the “In Vitro Susceptibility (MIC) H. influenzae OC4883” value in experiment [5] (Table 4, Formula III compounds) amounted to 1 mg/L.

These data come from US6590083B1, “Ketolide antibacterials” (Ortho-McNeil Pharmaceutical, Inc., priority 1999, dated 2003).
